Tests used:
HIV-IIIb = assay: Test A: Antiviral assay in MT4 cells; assay type: cell-based, HIV-1; details: MT-4 cells infected with HIV-IIIb, 5 days, CellTiter-Glo; for inhibition at 2 µM: Human immunodeficiency virus 1, IIIB, MT4, 120 h, read-out: % inhibition at 2 μM, percent inhibition of virus-induced cell killing, from dose response curve at 2 uM drug
in vitro = details: human, uninfected MT-4 cells, CC50 (nM), same protocol as Test A, CellTiter-Glo
Method in brief: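 Cytoprotection read-out: CellTiter-Glo chemiluminescence after 5 days at 37 °C of HIV-IIIb-infected MT-4 cells (m.o.i. 0.003) with compound in 10-point 3-fold dilutions, quadruplicate, 10% FBS. Cytotoxicity (CC50) measured identically without virus.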

SMILES	inhibition at 2 µM (HIV-IIIb) [%]	CC50 at 5 days (in vitro) [nM]	% inhibition at 2 μM (HIV-IIIb; percent inhibition of virus-induced cell killing, from dose response curve at 2 uM drug) [%]
CCOC(=O)c1nn(CC(=O)N[C@@H](Cc2cc(F)cc(F)c2)c2ncccc2-c2ccc(F)c(C(N)=O)c2)c2c1C1CCC2C1 (stereo partly drawn) [Example 90F, (S)-5-(2-(2-(3,5-difluorophenyl)-1-(2-(4,5,6,7-tetrahydro-3-carboethoxy-4,7-(methano)indazol-1-yl)acetamido)ethyl)pyridin-3-yl)-2-fluorobenzamide]	13	34600	
NC(=O)c1cc(-c2cccnc2[C@H](Cc2cc(F)cc(F)c2)NC(=O)Cc2n[nH]c3ccccc23)ccc1F [Example 469, 5-(2-(1-(2-(1H-indazol-3-yl)acetamido)-2-(3,5-difluorophenyl)ethyl)pyridin-3-yl)-2-fluorobenzamide]	17	> 53200	
NC(=O)c1cc(-c2cccnc2[C@H](Cc2cc(F)cc(F)c2)NC(=O)Cn2nc(C(F)(F)Oc3ccccc3)c3c2CCCC3)ccc1F [Example 159, (S)-5-(2-(1-(2-(3-(difluoro(phenoxy)methyl)-4,5,6,7-tetrahydro-1H-indazol-1-yl)acetamido)-2-(3,5-difluorophenyl)ethyl)pyridin-3-yl)-2-fluorobenzamide]	84	19100	
Cc1ccc2c(ccn2CC(=O)N[C@@H](Cc2cc(F)cc(F)c2)c2ncccc2-c2ccc(F)c(C(N)=O)c2)c1 [Example 547, (S)-5-(2-(2-(3,5-difluorophenyl)-1-(2-(5-methyl-1H-indol-1-yl)acetamido)ethyl)pyridin-3-yl)-2-fluorobenzamide]	45	13300	
Cc1ccc2c(c1)NC(=O)C2CC(=O)N[C@@H](Cc1cc(F)cc(F)c1)c1ncccc1-c1ccc(F)c(C(N)=O)c1 (stereo partly drawn) [Example 255, 5-(2-((1S)-2-(3,5-difluorophenyl)-1-(2-(6-methyl-2-oxoindolin-3-yl)acetamido)ethyl)pyridin-3-yl)-2-fluorobenzamide]	1	> 53200	
CC(C)(C)OC(=O)N1C[C@H](O)C[C@H]1C(=O)N[C@@H](Cc1cc(F)cc(F)c1)c1ncccc1-c1ccc(F)c(C(N)=O)c1 [Example 132, (2S,4R)-tert-butyl 2-((S)-1-(3-(3-carbamoyl-4-fluorophenyl)pyridin-2-yl)-2-(3,5-difluorophenyl)ethylcarbamoyl)-4-hydroxypyrrolidine-1-carboxylate]	7	22300	
NC(=O)c1cc(-c2cccnc2[C@H](Cc2cc(F)cc(F)c2)NC(=O)Cn2ncc3c(Cl)cc(Cl)cc32)ccc1F [Example 550, (S)-5-(2-(1-(2-(4,6-dichloro-1H-indazol-1-yl)acetamido)-2-(3,5-difluorophenyl)ethyl)pyridin-3-yl)-2-fluorobenzamide]	1	17000	
Cc1c(C#N)c(C(F)(F)F)nn1CC(=O)N[C@@H](Cc1cc(F)cc(F)c1)c1ncccc1-c1ccc(F)c(C(N)=O)c1 [Example 376, (S)-5-(2-(1-(2-(4-cyano-5-methyl-3-(trifluoromethyl)-1H-pyrazol-1-yl)acetamido)-2-(3,5-difluorophenyl)ethyl)pyridin-3-yl)-2-fluorobenzamide]	2	29100	
NC(=O)c1cccc(-c2cccnc2[C@H](Cc2cc(F)cc(F)c2)NC(=O)Cn2cnc3c2CCCC3)c1 [Example 382, (S)-3-(2-(2-(3,5-difluorophenyl)-1-(2-(4,5,6,7-tetrahydro-1H-benzo[d]imidazol-1-yl)acetamido)ethyl)pyridin-3-yl)benzamide]	85	> 39900	
NC(=O)c1cc(-c2cccnc2[C@H](Cc2cc(F)cc(F)c2)NC(=O)Cn2nc3c(c2C(F)(F)F)CNC3)ccc1F [Example 200B, (S)-5-(2-(2-(3,5-difluorophenyl)-1-(2-(3-(trifluoromethyl)-5,6-dihydropyrrolo[3,4-c]pyrazol-2(4H)-yl)acetamido)ethyl)pyridin-3-yl)-2-fluorobenzamide]	0	> 53200	
NC(=O)c1cccc(-c2cccnc2[C@H](Cc2cc(F)cc(F)c2)NC(=O)CC2C(=O)Nc3ccccc32)c1 (stereo partly drawn) [Example 191, 3-(2-((1S)-2-(3,5-difluorophenyl)-1-(2-(2-oxoindolin-3-yl)acetamido)ethyl)pyridin-3-yl)benzamide]		> 50900	19
C#Cc1cn(CC(=O)N[C@@H](Cc2cc(F)cc(F)c2)c2ncccc2-c2ccc(F)c(C(N)=O)c2)nc1C(F)(F)F [Example 341, (S)-5-(2-(2-(3,5-difluorophenyl)-1-(2-(4-ethynyl-3-(trifluoromethyl)-1H-pyrazol-1-yl)acetamido)ethyl)pyridin-3-yl)-2-fluorobenzamide]	13	26600	
CS(=O)(=O)c1ccc2[nH]cc(CC(=O)N[C@@H](Cc3cc(F)cc(F)c3)c3ncccc3-c3ccc(F)c(C(N)=O)c3)c2c1 [Example 464, (S)-5-(2-(2-(3,5-difluorophenyl)-1-(2-(5-(methylsulfonyl)-1H-indol-3-yl)acetamido)ethyl)pyridin-3-yl)-2-fluorobenzamide]	119	> 53200	
O=C(Cn1nc(C(F)F)c2c1C(F)(F)C1CC21)N[C@@H](Cc1cc(F)cc(F)c1)c1ncccc1-c1ccc(OC2CC2)cc1 (stereo partly drawn) [Example 268, N—((S)-1-(3-(4-cyclopropoxyphenyl)pyridin-2-yl)-2-(3,5-difluorophenyl)ethyl)-2-(3-(difluoromethyl)-5,5-difluoro-3b,4,4a,5-tetrahydro-1H-cyclopropa[3,4]cyclopenta[1,2-c]pyrazol-1-yl)acetamide]	27	27700	
NC(=O)c1cc(-c2cccnc2[C@H](Cc2cc(F)cc(F)c2)NC(=O)Cn2nc(C(F)(F)F)c3c2CCC3(F)F)ccc1F [Example 535G, (S)-5-(2-(1-(2-(4,4-difluoro-3-(trifluoromethyl)-5,6-dihydrocyclopenta[c]pyrazol-1(4H)-yl)acetamido)-2-(3,5-difluorophenyl)ethyl)pyridin-3-yl)-2-fluorobenzamide]	9	25300	
O=C(Cc1c[nH]c2ccc(F)cc12)N[C@@H](Cc1cc(F)cc(F)c1)c1ncccc1-c1ccsc1 [Example 72, (S)—N-(2-(3,5-difluorophenyl)-1-(3-(thiophen-3-yl)pyridin-2-yl)ethyl)-2-(5-fluoro-1H-indol-3-yl)acetamide]	56	16200	
O=C(Cn1nc(C(F)F)c2c1C(F)(F)C1CC21)N[C@@H](Cc1cc(F)cc(F)c1)c1ncncc1-c1ccc2cnccc2c1 (stereo partly drawn) [Example 131C, 2-(3-(difluoromethyl)-5,5-difluoro-3b,4,4a,5-tetrahydro-1H-cyclopropa[3,4]cyclopenta[1,2-c]pyrazol-1-yl)-N—((S)-2-(3,5-difluorophenyl)-1-(5-(isoquinolin-6-yl)pyrimidin-4-yl)ethyl)acetamide]	47	10400	
NC(=O)c1cc(-c2cccnc2[C@H](Cc2cc(F)cc(F)c2)NC(=O)Cn2nc3c(c2C(F)F)CC2CC32)ccc1F (stereo partly drawn) [Example 160, 5-(2-((1S)-1-(2-(3-(difluoromethyl)-4,4-a,5,5a-tetrahydro-2H-cyclopropa[4,5]cyclopenta[1,2-c]pyrazol-2-yl)acetamido)-2-(3,5-difluorophenyl)ethyl)pyridin-3-yl)-2-fluorobenzamide]	45	29300	
O=C(Cc1c[nH]c2ccc(O)nc12)N[C@@H](Cc1cc(F)cc(F)c1)c1nccnc1-c1ccc(Cl)cc1 (stereo in doubt) [Example 476, N-(1-(3-(4-chlorophenyl)pyrazin-2-yl)-2-(3,5-difluorophenyl)ethyl)-2-(5-hydroxy-1H-pyrrolo[3,2-b]pyridin-3-yl)acetamide]	30	53200	
CC1CCCc2c1c(C(F)(F)F)nn2CC(=O)N[C@@H](Cc1cc(F)cc(F)c1)c1ncccc1-c1ccc(F)c(C(N)=O)c1 (stereo partly drawn) [Example 272F, 5-(2-((1S)-2-(3,5-difluorophenyl)-1-(2-(4-methyl-3-(trifluoromethyl)-4,5,6,7-tetrahydro-1H-indazol-1-yl)acetamido)ethyl)pyridin-3-yl)-2-fluorobenzamide]	92	14300	
O=C(Cc1c[nH]c2ccc(F)cc12)N[C@@H](Cc1cc(F)cc(F)c1)c1ncccc1-c1cccc(OCc2ccccc2)c1 [Example 92, (S)—N-(1-(3-(3-(benzyloxy)phenyl)pyridin-2-yl)-2-(3,5-difluorophenyl)ethyl)-2-(5-fluoro-1H-indol-3-yl)acetamide]	0	10300	
O=C(Cc1c[nH]c2ccc(F)cc12)N[C@@H](Cc1cc(F)cc(F)c1)c1ncccc1-c1ccc2nonc2c1 [Example 441, (S)—N-(1-(3-(benzo[c][1,2,5]oxadiazol-5-yl)pyridin-2-yl)-2-(3,5-difluorophenyl)ethyl)-2-(5-fluoro-1H-indol-3-yl)acetamide]	35	8650	
O=C(Cc1c[nH]c2ccc(O)cc12)N[C@@H](Cc1cc(F)cc(F)c1)c1ncccc1Br [Example 38D, (S)—N-(1-(3-bromopyridin-2-yl)-2-(3,5-difluorophenyl)ethyl)-2-(5-hydroxy-1H-indol-3-yl)acetamide]	3	42600	
NC(=O)c1cc(-c2cccnc2[C@H](Cc2cc(F)cc(F)c2)NC(=O)Cn2nc(C(F)(F)F)c3c2CSC3)ccc1F [Example 189D, (S)-5-(2-(2-(3,5-difluorophenyl)-1-(2-(3-(trifluoromethyl)-4,6-dihydro-1H-thieno[3,4-c]pyrazol-1-yl)acetamido)ethyl)pyridin-3-yl)-2-fluorobenzamide]	48	23300	
